Test results as given in patent publication US8796317B2, “Use of 7-nitro-2,1,3-benzoxadiazole derivatives for anticancer therapy” (Universita Degli Studi di Roma “Tor Vergata”, priority 2003, dated 2014).
Where “and” joins values, the source holds several entries; their conditions need not be identical. Equal entries are not always repeated.

Key:
GST P1-1 = molecular target: T1, GST P1-1 (Homo sapiens, UniProt P09211); assay: Inhibition of GST activity (CDNB/GSH spectrophotometric assay); type: biochemical; details: for IC50: 25° C., pH 6.5, 1 mM glutathione, 1 mM CDNB
T1 construct: made in house; host or cells: Escherichia coli
Experimental: (§1) GSTA1-1, M2-2 and P1-1, expressed in Escherichia coli, were purified by using a chromatographic passage on an affinity resin capable of selectively retaining the GST (J. Biol. Chem. 270, (1995), 1249-1253).
(§2) GST activity was tested at 25° C. with a 0.1 M potassium phosphate buffer, at pH 6.5, in the presence of the substrates, i.e. of the glutathione (Sigma-Aldrich, Fine Chemicals) in a concentration of 1 mM, and of 1-chloro-2,4-dinitrobenzene (CDNB) (Sigma-Aldrich, Fine Chemicals) 1 mM (Methods Enzymol. 77, 1981, 398-405).
(§3) Enzymatic activity was assessed spectrophotometrically at 340 nm, a wavelength at which it absorbs the reaction product S-(2,4-dinitrobenzene)glutathione (GS-DNB) (6=9.6 mM^−1 cm^−1).

GST M2-2 = molecular target: T2, GST M2-2 (Homo sapiens, UniProt P28161); assay: as above; type: biochemical; details: 25° C., pH 6.5, 1 mM glutathione, 1 mM CDNB
T2 construct: made in house; host or cells: Escherichia coli
T2 sequence (P28161 1-218): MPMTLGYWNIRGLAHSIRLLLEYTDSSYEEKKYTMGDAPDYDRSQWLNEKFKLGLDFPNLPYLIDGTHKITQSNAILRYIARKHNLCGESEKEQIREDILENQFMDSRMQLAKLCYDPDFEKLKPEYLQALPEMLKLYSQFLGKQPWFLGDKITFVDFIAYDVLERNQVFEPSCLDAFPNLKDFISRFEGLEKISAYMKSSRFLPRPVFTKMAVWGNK
Experimental: (§4) These compounds were tested as inhibitors of the activity of the isoenzymes GSTP1-1, GSTA1-1 and GSTM2-2 belonging to the most representative GST classes: the Pi, Mu and Alpha classes.
as §1, §2, §3

GST A1-1 = molecular target: T3, GST A1-1 (Homo sapiens, UniProt P08263); assay: as above; type: biochemical; details: 25° C., pH 6.5, 1 mM glutathione, 1 mM CDNB
T3 construct: made in house; host or cells: Escherichia coli
T3 sequence (P08263 1-222): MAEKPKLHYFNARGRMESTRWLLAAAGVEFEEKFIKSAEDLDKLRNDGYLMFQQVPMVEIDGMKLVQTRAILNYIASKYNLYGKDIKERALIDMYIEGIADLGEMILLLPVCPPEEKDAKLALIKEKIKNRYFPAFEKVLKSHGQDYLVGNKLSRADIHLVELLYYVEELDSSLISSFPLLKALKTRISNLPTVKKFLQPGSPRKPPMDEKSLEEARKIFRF
Experimental: as §4, §1, §2, §3

[1] = tested on: GLC-4 (human small cell lung carcinoma); assay: SRB cell growth test; type: cell-based; details: GLC4, read-out: Activity trials on cell lines - IC50 (50% inhibition of cell growth), GLC-4, 48 hours
Experimental: (§5) Four cancer cell lines were used for testing the anticancer activity of the derivatives of 7-nitro-2,1,3-benzoxadiazole: K562 (human myeloid leukaemia), HepG2 (human hepatic carcinoma), CEM1.3 (human T-lymphoblastic leukaemia) and GLC-4 (human small cell lung carcinoma).
(§6) The human cancer cell lines were maintained in RPMI 1640 (containing L-glutamine 2 mM and 0.1 g/l of penicillin-G/streptomycin sulphate) enriched with 5% foetal bovine serum (FBS), at 37° C., 5% CO2 and 98% humidity.
(§7) The cells were placed in 96-well plates at a density of 15,000 cells per well, in a culture medium volume of 100 μl. After 24 hours, each of the 7-nitro-2,1,3-benzoxadiazole derivatives to be assayed, at the required concentration, was added to the culture medium. At the same time, some control trials were arranged by adding to the wells the solvent in which the compound was dissolved (% v/v of DMSO in PBS). All measurements were carried out in quadruplicate.
(§8) The cells were incubated for 48 hours at 37° C., at 5% CO2.
(§9) In order to obtain a dose-response profile for each derivative of 7-nitro-2,1,3-benzoxadiazole under study, an evaluation process based on the method described by Shekan et al (J. Natl. Cancer. Inst. 82, (1990), 1107-1112) was used.
(§10) After incubation, the percentage cell growth was evaluated by an insitu cell fixation procedure, followed by an SRB test using a colouring procedure with sulphorodamine B capable of specifically binding to proteins. The coloured product was then solubilised and quantified spectrophotometrically in order to determine the growth of the cells treated with the compound under study with respect to the ones treated with the solvent only.

[2] = tested on: HepG2 (human hepatic carcinoma); assay: SRB cell growth test; type: cell-based; details: HepG2, read-out: Activity trials on cell lines - IC50 (50% inhibition of cell growth), HepG2, 48 hours
Experimental: as §5, §6, §7, §8, §9, §10

[3] = tested on: CEM1.3 (human T-lymphoblastic leukaemia); assay: SRB cell growth test; type: cell-based; details: CEM13, read-out: Activity trials on cell lines - IC50 (50% inhibition of cell growth), CEM1.3, 48 hours
Experimental: as §5, §6, §7, §8, §9, §10

[4] = tested on: K562 (human myeloid leukaemia); assay: SRB cell growth test; type: cell-based; details: K562, read-out: Activity trials on cell lines - IC50 (50% inhibition of cell growth), K562, 48 hours
Experimental: as §5, §6, §7, §8, §9, §10

caspase-3 in K562 cells = assay: Caspase-3 activation (Ac-DEVD-AFC) in cell lysates; type: cell-based, human; details: K562, 10 μM, after 24 h
Experimental: Pellets of cells at different times of incubation with 7-nitro-benzofurazan derivative No. 2 (10 μM and 2 μM with K562 and CEM1.3 respectively), were resuspended with lysis buffer (100 mM Hepes, pH 7.6, 0.1% Chaps, 1 mM EDTA, 1 mM Phenyl-methyl-sulphonyl-fluoride and 10 mM DTT) for 20 min on ice and cells were disrupted by 10-s sonication. Lysates, after centrifugation, were utilized to measure the caspase-3 activity. The substrate utilized was the model fluorescent peptide Ac-DEVD-AFC (Acetyl-Asp-GluVal-Asp-7-amino-4-trifluoromethyl coumarin) which was proteolyzed by caspase-3 resulting in a fluorescence emission at 505 nm (excitation at 400 nm). As control, lysates were incubated 30 min at 30° C. with the caspase inhibitor DEVD-CHO before evaluation of enzyme activity. Caspase activity was expressed as fluorescence change observed per minute per number of cells.

[5] = molecular target: T4, GST-JNK complex in K562 cells (Homo sapiens, UniProt P09211); assay: Immunoprecipitation with anti-JNK antibody and Western blot; type: cell-based; details: K562 lysates, 10 μM; slightly increases only after 3 h
T4 construct: K562 cell lysates were immunoprecipitated with an anti-JNK antybody and used for Western blot analysis; endogenous in cells; host or cells: K562
Experimental: For the immunoprecipitation analysis, cell pellets were resuspended in lysis buffer, and cells were disrupted by 10-s sonication. Lysates were then centrifuged at 14,000 g for 15 min at 4° C. Proteins were incubated in lysis buffer with anti-JNK antibody for 2 h at 4° C. Immunocomplexes were absorbed with protein A-Sepharose for 30 min at 4° C. After three washes with lysis buffer, immune pellets were boiled in SDS sample buffer. Proteins were loaded on 15% SDS-polyacrylamide gel and transferred to nitrocellulose. GST, JNK and phospho-JNK were detected by specific antibody.
To assess if cell treatment with derivative No. 2 affects the amount of GST-JNK complex, K562 cell lysates were immunoprecipitated with an anti-JNK antybody and used for Western blot analysis.

K562 cells = assay: Flow cytometric analysis of apoptosis (Annexin V-FITC / PI); type: cell-based, human; details: K562, 10 μM
Experimental: (§11) Cells were washed in PBS, and stained with propidium iodide and with the impermeant dye Annexin V-FITC (Bender MedSystems, Vienna, Austria). The stained cells were analysed using a FACScan Flow Cytometer (Becton-Dickinson, CA). Data were recorded and statistically analysed by WinMDI version 2.8 software. Simultaneous staining of cells with Annexin V-FITC and PI allows the discrimination of intact cells, early apoptotic and late apoptotic or necrotic cells.

CEM1.3 cells = assay: as above; type: cell-based, human; details: CEM1.3, 2 μM
Experimental: as §11

[6] = tested on: K562, HepG2, CEM1.3 and GLC-4 cancer cell lines; assay: Cytotoxicity, viability and cell penetration on all the tested cancer cell lines; type: cell-based, human
Experimental: as §5, §6
as §7, with “quadruplicate. […]” for “quadruplicate.”
as §10

[7] = tested on: CEMVBL100, leukaemia line resistant to vinblastine (hyperexpressing P-glycoprotein); assay: Cytotoxicity of vinblastine on resistant cells with and without the derivative (SRB test); type: cell-based; details: CEM/VBL100, 48 h
Experimental: In cancer cells the resistance to many anticancer drugs is often associated with a high expression of P-glycoprotein, a membrane protein belonging to the overall family of ABC transporters (ATP-binding cassette).
The cells were placed in 96-well strips at a density of 15,000 cells per well, in a volume of culture medium of 100 μl. After 24 hours, a suitable concentration of between 25 nM and 1000 nM of vinblastine was added to the culture medium. […] At the same time, some control trials were arranged by adding to the wells the solvent in which the compound was dissolved (% v/v of DMSO in PBS). All measurements were carried out in quadruplicate. After 48 hours of incubation, a dosage-response profile was obtained by using the SRB test (J. Natl. Cancer. Inst. 82, (1990), 1107-1112, loc. cit.).

T1 sequence (P09211 2-210 limits assumed): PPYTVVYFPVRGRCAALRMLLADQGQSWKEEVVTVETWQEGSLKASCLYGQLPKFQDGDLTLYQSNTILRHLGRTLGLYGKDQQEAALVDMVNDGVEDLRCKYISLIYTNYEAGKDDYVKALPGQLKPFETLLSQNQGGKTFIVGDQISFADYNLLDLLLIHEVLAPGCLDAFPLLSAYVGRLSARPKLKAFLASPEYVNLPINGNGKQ
T4 sequence (P09211 2-210 limits assumed, one chain of several): as the sequence (P09211 2-210 limits assumed) above

Row | SMILES | IC50 (GST P1-1) | IC50 (GST M2-2) | IC50 (GST A1-1) | IC50 [1] | IC50 [2] | IC50 [3] | IC50 [4] | caspase-3 activity (caspase-3 in K562 cells) | amount of GSTP1-1 that co-precipitates with JNK [5] | apoptosis (K562 cells; 12 h treatment) | apoptosis (K562 cells; after 24 h) | apoptosis (CEM1.3 cells; 12 h treatment) | apoptosis (CEM1.3 cells; after 24 h) | viability of all the tested cancer cell lines ([6]; 48 hours of incubation with 50 μM) | penetration into the cells (intracellular fluorescence) ([6]; after 6 hours of incubation, various concentrations) | inhibition activity with regard to the enzymatic isoform GSTP1-1 (in words) (GST P1-1) | IC50 ([7]; CEM VBL100, 7-nitro-2,1,3-benzoxadiazole derivative absent) | IC50 ([7]; CEM VBL100, with 0.5 μM 6-(7-nitro-2,1,3-benzoxadiazol-4-ylthio)hexanol)
1 | O=[N+]([O-])c1ccc(SCCCCO)c2nonc12 [(1), 4-(7-nitro-2,1,3-benzoxadiazol-4-ylthio)butanol] | 2 µM | 0.03 µM | 56 µM | 3.2 µM | 3.2 µM | 0.2 µM | 2.2 µM |  |  |  |  |  |  |  |  |  |  | 
2 | O=[N+]([O-])c1ccc(SCCCCCCO)c2nonc12 [(2), 6-(7-nitro-2,1,3-benzoxadiazol-4-ylthio)hexanol] |  | 0.01 µM | 25 µM | 1.4 µM | 2.9 µM | 0.1 µM | 0.8 µM | strong increase of caspase-3 | rapidly decreased | 30% | 41% | 34% | 47% |  |  |  |  | 
3 | O=[N+]([O-])c1ccc(Sc2ncc[nH]2)c2nonc12 [(3), 2-(7-nitro-2,1,3-benzoxadiazol-4-ylthio)imidazole] | 6.3 µM | 0.01 µM | 11 µM | 10 µM | 16 µM | 3.9 µM | 8.8 µM |  |  |  |  |  |  |  |  |  |  | 
4 | O=[N+]([O-])c1ccc(Sc2ccc(O)cc2)c2nonc12 [(4), 4-(7-nitro-2,1,3-benzoxadiazol-4-ylthio)phenol] | 0.7 µM | 0.03 µM | 6.5 µM | 7.5 µM | 16.3 µM | 2.4 µM | 6.4 µM |  |  |  |  |  |  |  |  |  |  | 
5 | O=C(O)CCSc1ccc([N+](=O)[O-])c2nonc12 [(5), 3-(7-nitro-2,1,3-benzoxadiazol-4-ylthio)propionic acid] | 5.74 µM | 0.31 µM | 66 µM | 16.5 µM | 25 µM | 6.5 µM | 38 µM |  |  |  |  |  |  |  |  |  |  | 
6 | O=[N+]([O-])c1ccc(NCCCCCCO)c2nonc12 [(6), 6-(7-nitro-2,1,3-benzoxadiazol-4-ylamino)hexanol] |  | ~2 µM and 1.8 µM | > 100 µM | > 50 µM | > 50 µM | > 50 µM | > 50 µM |  |  |  |  |  |  | still viable | easily penetrate the cells | no inhibition activity |  | 
7 | CC[C@]1(O)C[C@@H]2CN(CCc3c([nH]c4ccccc34)[C@@](C(=O)OC)(c3cc4c(cc3OC)N(C)[C@H]3[C@@](O)(C(=O)OC)[C@H](OC(C)=O)[C@]5(CC)C=CCN6CC[C@]43[C@@H]65)C2)C1 [vinblastine] |  |  |  |  |  |  |  |  |  |  |  |  |  |  |  |  | 0.34 µM | 0.05 µM
